From patent US20250043349A1, “DEORPHANIZING ODORS USING SINGLE CELL SEQUENCING” (PRESIDENT AND FELLOWS OF HARVARD COLLEGE, priority 2021, published 2025)

Tests used:
Type in all cases: in vivo, mouse
[1] = system: acetophenone-responsive OSN subtypes; assay: Transient naris occlusion followed by Act-Seq; conditions: 10% acetophenone, 2 hours after unplugging
Experimental: Because odor responses in occluded OSNs cannot be examined in the chronic occlusion experiment due to permanent cautery, transient unilateral naris occlusion was performed using removable nasal plugs. Adult mice (6-12 weeks old) were anesthetized by isoflurane and removal nasal plugs were inserted into one of the two nostrils, as previously described (Galliano et al., 2021; Kass et al., 2012). The occlusion was confirmed by measuring airflow from the occluded nostril via thermocouple. After 5 days, a subset of mice was used for scSeq experiment directly (control mice) to assess the effects of naris occlusion on changes in gene expression. Under brief anesthesia by isoflurane, the remaining mice were unplugged and transferred to a new empty disposable cage containing either DPG alone or 10% acetophenone. After 2 hours, mice were subjected to scSeq. Each of the two nostrils was used separately in both control (open and plugged) and odor-exposed mice (open and unplugged).

[2] = system: OSN subtypes; assay: Persistence of transcriptional changes: 2 h odor exposure, 22 h home cage, scSeq ES scores; conditions: two-hour exposure, measured after 24 hours
Experimental: Act-Seq (Wu et al., 2017) was performed following odor exposure to quantify odor-evoked responses in each OSN subtype (defined by their expressed OR) across the entire OR repertoire. Mice were habituated to a reversed light cycle for at least for 1 week before odor exposure, transferred to a new disposable cage with regular bedding/food and kept overnight in a satellite animal facility. On the experimental day, each mouse was first transferred to a new empty disposable cage during the dark cycle and habituated for 20 minutes. Empty cages were used to avoid any activation by odorants present within the environments in which the mice were housed. Odors were added to a piece of filter paper (100 μL of odorant) in a 35 mm petri dish and a cotton ball (200 μL of odorant) and placed in each cage. After 2 hours, mice were euthanized, and dissociation was performed as described below. Odors used in this study were as follows. […]
Changes in ES scores were evaluated by comparing the ES scores for each OSN subtype across experimental conditions. […] The changes in ES scores and z-scored functional gene expression across conditions for each OSN subtype are described. The relative ES score change for each OSN subtype was calculated by subtracting the mean across all OSN subtypes, to normalize for any global changes across conditions that were present across the population of OSNs.

[3] = system: OSN subtypes (odorant receptors, ORs); assay: Act-Seq: scSeq of olfactory epithelium after two-hour odor exposure (IEG expression, activated ORs, activation score)
Experimental: Act-Seq (Wu et al., 2017) was performed following odor exposure to quantify odor-evoked responses in each OSN subtype (defined by their expressed OR) across the entire OR repertoire. Mice were habituated to a reversed light cycle for at least for 1 week before odor exposure, transferred to a new disposable cage with regular bedding/food and kept overnight in a satellite animal facility. On the experimental day, each mouse was first transferred to a new empty disposable cage during the dark cycle and habituated for 20 minutes. Empty cages were used to avoid any activation by odorants present within the environments in which the mice were housed. Odors were added to a piece of filter paper (100 μL of odorant) in a 35 mm petri dish and a cotton ball (200 μL of odorant) and placed in each cage. After 2 hours, mice were euthanized, and dissociation was performed as described below. Odors used in this study were as follows. Dipropylene glycol (DPG, control solvent), and 10% of acetophenone, octanal, 2-hydroxy acetophenone, 4-methyl acetophenone, and methyl salicylate. As a control, mice were exposed to DPG alone for 30 min. This control condition was used to account for any drift in transcriptomes during the overnight housing and habituation periods prior to odor exposure and designed to capture the transcriptome in the state it would have been in the odor-exposed animals prior to odor exposure. […] Act-Seq was also performed using lower concentrations of acetophenone (1.0, 0.1, 0.01%) and 2-hydroxy acetophenone (0.1%, 0.01%). All odor dilutions were made with DPG, and all odors and DPG were obtained from Sigma. To assess the persistence of any transcriptional changes observed as a result of odor exposure, a cohort of mice was exposed to acetophenone or DPG for 2 hours, transferred to new clean regular home cages, and subjected to scSeq after an additional 22 hours.
The main olfactory epithelium was dissected in Earle's Balanced Salt Solution (EBSS, pre-treated with carbogen for at least 5 minutes before each use, Worthington), then transferred to a round-bottomed glass dish containing 750 μL of papain solution (one vial of Papain (Worthington) dissolved in 5 mL of EBSS and then equilibrated 10 minutes at 37° C.) and 100 μL of DNase solution (one vial of DNase-I (Worthington) dissolved in 500 μL of EBSS). Bone was removed from the epithelium under a dissecting microscope and the resulting epithelial tissue was placed in a 5 mL tube (Becton Dickinson) with an additional 1.75 mL of Papain solution and 200 μL of DNase-I solution and rocked gently for-60 minutes at 37° C. The tissue was then gently triturated with a 5 mL pipette 10-15 times, passed through a 40 μm cell strainer (Becton Dickinson), and washed with 1 mL of Hibernate-A medium containing 10% Fetal Bovine Serum (FBS. GIBCO). Filtered cells were transferred to a new 5 mL tube and centrifuged 5 minutes at 300×g. The supernatant was decanted, the cells were washed once with 4 mL Hibernate-A containing 10% FBS and resuspended in 1 mL Hibernate-A containing 0.2% FBS. Importantly, each of the solutions above contained transcriptional inhibitors (5 μg/mL of Actinomycin D, 10 μg/mL of Anisomycin and 10 μM of Triptolide, all obtained from Sigma) for all experiments, especially the Act-Seq experiments, except where noted.
OSN subtypes that were responsive to odorants were identified via a two-step process. First, individual OSNs (as defined by the expressed OR) were determined as activated based on their mean z-scored immediate early genes (IEG) expression. A set of 10 IEGs were used (Btg2, Egr1, Fos, Fosb, Gm13889, Junb, Nr4a1, Nr4a2, Pcdh10, and Srxn1). […] The set of 10 IEGs was used since even though all of the IEGs were specific to acute activation by odors, they were still only detected in a minority of cells due to the sparse nature of scSeq. […]

[4] = acetophenone concentration series 0.01-10%

## CC(=O)c1ccccc1 [acetophenone]
[1]
  activation scores of acetophenone receptor-expressing OSNs from occluded (unplugged) vs open nostrils: higher activation scores
[2]
  ES scores after transient exposure: did not change ES scores after 24 hours
[3]; Act-Seq, ORs identified as acetophenone receptors
  percent of cells activated per OR on average, 5 partially activated ORs identified only by phospho-S6: 43.8%
[3]; Fisher's exact test, overlap at chance levels
  overlap between ORs activated by ACE and OCT, odds ratio: 1.42
[3]; [4]
  activation scores of acetophenone-responsive OSNs with increasing concentrations: tonically increased
  number of ORs activated with increasing concentrations: tonically increased
[3]; odor vs control (DPG) conditions
  z-scored expression of 10 immediate early genes (IEGs) for each OSN subtype, odor vs control: higher in the odor conditions
